# Data published in ChEMBL document CHEMBL3507680, “University of Dundee, Gates Library screen for HepG2 cell viability”.
# Test: Human HepG2 cell viability assay in 384 well format
# Format: toxicity, cell-based
# Design: dose 125 nL, time 70.5 hour; concentration not given beside the values
# Conditions: HepG2 cells, read-out: Inhibition
row,SMILES,cytotoxicity at 70.5 h [%]
1,Cn1ncc(N2CCOCC2)c(Cl)c1=O,-7.54
2,O=C(Nc1ccnc2ccnn12)c1ccc(N2CCC(O)CC2)cc1,6.12
3,CCC(NC(=O)NCc1cc(Cl)ccc1OC)c1noc(C)n1 (centres undefined),16
4,CCC(NC(=O)Nc1ccc(OC)c(C)c1)c1noc(C)n1 (centres undefined),4.08
5,O=C(c1ncoc1C1CCCO1)N1CCC2(CCCCC2)CC1 (centres undefined),-3.26
6,O=C(Nc1cccn(Cc2ccccc2)c1=O)c1ccncc1F,14.1
7,O=C(c1[nH]nc(C2CC2)c1Cl)N1CCN(C2CC2)CC1,0.431
8,CC(=O)NC(c1cc(F)ccc1F)C1CC1 (centres undefined),-3.82
9,Cc1nn(C)c(C)c1OCC(=O)N1CCCCC1,-2.11
10,COCCN(C)c1ccc(NCc2ccsc2)nc1,-10.2
11,Cc1cccc(C(=O)N2CCN(CCOC(C)C)CC2)n1,-6.81
12,CC(C)c1nc2c(n1C)CCN(CCCc1nc3ccccc3o1)C2,-0.617
13,CN(Cc1nccn1C)S(=O)(=O)c1cccc(C#N)c1,-1.58
14,CNC(=O)c1ccc(=O)n(Cc2csc(C(C)(C)C)n2)c1,-18.4
15,Cc1nc(C2(NCc3cccc(F)c3F)CCCCC2)no1,-6.93
16,COCC(C)(C)NS(=O)(=O)C1CS(=O)(=O)c2ccccc21 (centres undefined),-17.4
17,CCSc1ccc(NC(=O)NC(C)c2c(C)nn(C)c2C)cn1 (centres undefined),-13.5
18,CC(C)c1nc2c(n1C)CCN(CCS(=O)(=O)c1ccccc1)C2,-12.4
19,Cc1cnn(C2CCCN(C(=O)c3c(C)oc4nc[nH]c(=O)c34)C2)c1 (centres undefined),-9.75
20,Cc1oc2nc[nH]c(=O)c2c1C(=O)N1CCCC(n2cccn2)C1 (centres undefined),-4.01
21,CCS(=O)(=O)N1CCC(CSc2ccccc2)C1 (centres undefined),-11.1
22,Cn1cc(Br)cc1C(=O)NC1(C#N)CC1,15.5
23,Cc1ccccc1C1CN(c2cnn(C)c(=O)c2Cl)CCO1 (centres undefined),-1.35
24,Cc1cccc(CNC2(CCO)CCOCC2)c1C,-2.52

row,SMILES,cytotoxicity at 70.5 h [%]
1,O=C(NC1CCCN(c2ccccc2F)C1)c1ccon1 (centres undefined),-9.69
2,CC1CN(C(=O)c2cc(=O)[nH]c3ccc(F)cc23)CCO1 (centres undefined),19.1
3,CSCCC(C)NC(=O)N(C)Cc1cc(Cl)cn1C (centres undefined),-10.9
4,Cc1cccc(C(=O)N2CCCN(CCc3scnc3C)CC2)c1,-10.5
5,CCS(=O)(=O)CC(C)NC(=O)N(C)Cc1cc(Cl)cn1C (centres undefined),-7.58
6,CN(Cc1nccn1C)S(=O)(=O)Cc1cccc(C#N)c1,-12.6
7,CC(NCC1CCN(CCO)CC1)c1ccc(F)c(Cl)c1 (centres undefined),0.00897
8,CCN(Cc1ccccc1)S(=O)(=O)C1CCS(=O)(=O)CC1,-10.9
9,CC(=O)Nc1ccc(C(=O)N2CCSCC2c2ccc(C)o2)cc1 (centres undefined),-4.02
10,Cc1ccc(C2CSCCN2C(=O)c2ccoc2C)o1 (centres undefined),-8.94
11,CN(C(=O)CCN1CCCC1=O)c1cc(C#N)c2ccccc2n1,4.42
12,N#Cc1ccc(F)c(CN2CCNC(=O)C2c2cccs2)c1 (centres undefined),18
13,N#Cc1cccc(OCCN2CCNC(=O)C2c2cccs2)c1 (centres undefined),-6
14,Cc1ccc(S(=O)(=O)N2CCN(C)c3ccncc32)cc1F,-4.45
15,CCOCCNC(=O)c1ccc(OC)cc1I,-6.65
16,CN(CC(=O)NC1CC1)C(=O)c1csc(Br)c1,-8.41
17,CCOCC(=O)Nc1cccnc1-n1ccnc1C,-6.13
18,O=S(=O)(NC1CCCCC12OCCO2)c1ccc2c(c1)OCCO2 (centres undefined),-7.16
19,N#Cc1ccc(OCCN2CCNC(=O)C2c2cccs2)cc1 (centres undefined),-6.87
20,Cc1ccc(C2CSCCN2C(=O)c2cnsn2)o1 (centres undefined),-10.7
21,Clc1ccc(Cc2nc(CNCCn3cccn3)cs2)cc1,-1.63
22,c1ccc(OCc2nc(CNCCn3cccn3)cs2)cc1,27
23,COc1cccc(CNCc2cccnc2-n2cccn2)c1OC,19.6
24,CC(C)CCN1CCN(C(=O)c2ccc(=O)[nH]n2)CC1,-7.24

row,SMILES,cytotoxicity at 70.5 h [%]
1,CC(C)c1nc(CNC2CCN(S(C)(=O)=O)CC2)cs1,20.3
2,O=C1CCN(CCCS(=O)(=O)c2ccc(Cl)cc2)CCN1,-4.67
3,COc1ccccc1CN(CC1CCCO1)C(=O)c1cc(C)n[nH]1 (centres undefined),-14.4
4,CC1CN(C)CCN1C(=O)Nc1nc(-c2ccc[nH]2)cs1 (centres undefined),-14.7
5,OC(CN1CCN(CCOCC(F)(F)F)CC1)c1ccccc1 (centres undefined),24.5
6,O=C(NCCc1nncn1C1CC1)c1cnn(Cc2ccccc2)c1,-11.1
7,CC(C)c1ocnc1C(=O)N1CC(=O)Nc2cccnc21,-1.78
8,COCCN1CCC(Nc2ccc(C#N)cc2F)CC1,-13.7
9,O=C1CCN(C(=O)c2ncoc2-c2ccco2)c2ncccc2N1,-9.5
10,CC(C)c1ocnc1C(=O)N1CCC(=O)Nc2cccnc21,-13.9
11,CC(C)(C)c1ccc(S(=O)(=O)CCN2CCNC(=O)CC2)cc1,-10.4
12,COC(C)C(=O)NS(=O)(=O)c1ccc(F)c(C(F)(F)F)c1 (centres undefined),-12.6
13,CC(=O)NS(=O)(=O)c1ccc(F)c(C(F)(F)F)c1,-6.35
14,COc1cccc(NC(=O)NC2(c3noc(CN(C)C)n3)CCCC2)c1,-10.2
15,CN(C)Cc1nc(C2(NC(=O)Nc3cccc(F)c3)CCCC2)no1,-2.26
16,CN(C)Cc1nc(C2(NC(=O)Nc3ccccc3)CCCC2)no1,-12.8
17,Cc1cccc(C(=O)N2CCN(CCC(C)C)CC2)n1,-11.4
18,CCN(Cc1ccoc1)C(=O)NC1CCN(C(=O)OC(C)(C)C)C1 (centres undefined),-2.35
19,Cc1cccc(CN(Cc2ccccn2)S(=O)(=O)N(C)C(C)C)c1,-14
20,COc1cccc(CNc2cccnc2-n2cccn2)c1OC,-14.7
21,Cc1ccc(C)c(CN2CCOC(c3noc(C)n3)C2)c1 (centres undefined),-4.49
22,CCN(Cc1ccoc1)C(=O)C1CN(C(=O)OC(C)(C)C)C1,-13.5
23,COc1ccccc1CN(CC1CCCO1)C(=O)c1ccc(F)cn1 (centres undefined),-9.98
24,CC(CNC1CCN(Cc2ccncc2)CC1)c1ccc(F)cc1F (centres undefined),-11

row,SMILES,cytotoxicity at 70.5 h [%]
1,COc1cccc(COc2nc(C(C)C)no2)c1,15.2
2,NS(=O)(=O)c1ccc(CNCC(=O)NCc2ccc(Cl)cc2Cl)cc1,-8.64
3,O=S(=O)(NCc1ccc(S(=O)(=O)N2CCCC2)s1)c1cc(Cl)cc(Cl)c1,-21.3
4,CN(CCN1CCOC1=O)CC(=O)Nc1cc(F)cc(F)c1,-19.7
5,O=C(NCCCc1nc(=O)[nH][nH]1)Nc1cccc(F)c1,-1.96
6,O=C(NCCCc1nc(=O)[nH][nH]1)Nc1ccc(Cl)cc1,-13.5
7,CCn1c(CN(C)Cc2csc(C)n2)nc2cc(F)ccc21,-20.1
8,CC(C)C(CNCc1cccc2c1OCO2)N1CCOCC1 (centres undefined),3.33
9,Cc1csc(CCCNc2ccc(S(N)(=O)=O)cc2C#N)n1,-22.6
10,CCC(C(=O)Nc1ccc2nc(C)oc2c1)N1CCCC1=O (centres undefined),20.5
11,Cc1ccc(SC2CCCC2)c(C(=O)NCCc2n[nH]c(=O)[nH]2)c1,2.84
12,Cc1nn(C)c(Cl)c1CN1CCN(c2nccs2)C(C)C1 (centres undefined),2.61
13,O=S(=O)(Cc1c(F)cccc1F)NCCOc1cccnc1,17.9
14,COc1ccc(C)cc1CN(C)CCCNS(C)(=O)=O,7.17
15,Cn1c(CCN2CCN(CCc3ccccc3)CC2)nc2ccccc21,-6.23
16,CN(CCCNc1cc(N2CCCC2CO)ncn1)S(C)(=O)=O (centres undefined),11.1
17,Cc1ccc(NC(C)C(=O)NCc2cccs2)cc1C (centres undefined),18
18,CS(=O)(=O)Cc1cccc(C(=O)NCC2Cc3ccccc3O2)c1 (centres undefined),-3.94
19,O=C(Nc1nccs1)N1CCCC(N2CCNC2=O)C1 (centres undefined),1.93
20,CC(C)(C)NC(=O)C1CSCN1S(=O)(=O)c1cccc(F)c1 (centres undefined),-9.43
21,CC(NC(=O)CCCOc1ccccc1Cl)c1ccncc1 (centres undefined),13.5
22,CN(C)C(=O)C1CCCN1CCCNC(=O)c1ccccc1F (centres undefined),-1.14
23,COc1ccccc1CC(=O)NCCCN1CCCC1C(=O)N(C)C (centres undefined),2.29
24,Cc1nc(C)n(CC2CCCN(CCc3ccncc3)C2)n1 (centres undefined),-2.11

row,SMILES,cytotoxicity at 70.5 h [%]
1,Cc1csc(N2CCN(Cc3ccccn3)CC2C)n1 (centres undefined),-5.63
2,Cc1cc(C)n(CC2CCCN2C(=O)c2ccc3c(c2)nnn3C)n1 (centres undefined),1.66
3,COc1ccc(NC(C)C(=O)NCCc2cccs2)cc1F (centres undefined),9.05
4,CSCC(CCO)NC(=O)Nc1cccc(Br)c1 (centres undefined),-0.357
5,Cc1cc(C)n(CC2CCCN2C(=O)c2ccc3[nH]nnc3c2)n1 (centres undefined),0.633
6,CSCC(CCO)NC(=O)Nc1cc(Br)ccc1C (centres undefined),-3.57
7,CC(C1CC1)N(C(=O)NCCCn1nc2ccccn2c1=O)C1CC1 (centres undefined),2.18
8,Cc1n[nH]c(C)c1C1CCCN1C(=O)NCC(=O)NC(C)(C)C (centres undefined),-2.7
9,CC(C)S(=O)(=O)NCC1CCCN(C(=O)c2ccc3c(c2)CCC3)C1 (centres undefined),1.31
10,CC(C)S(=O)(=O)NCC1CCCN(C(=O)c2ccc3c(c2)OCCO3)C1 (centres undefined),-1.13
11,Cc1nsc(N2CCCN(c3nc(C4CC4)ns3)CC2)n1,1.36
12,Cc1nc2ccccn2c1CN(Cc1cccnc1)CC1CCCO1 (centres undefined),0.351
13,O=C(CN(Cc1cccnc1)CC1CCCO1)Nc1ccc(F)cc1 (centres undefined),2.4
14,Cc1n[nH]c(C)c1C1CCCN1C(=O)CNC(=O)C(C)(C)C (centres undefined),-0.174
15,Cc1nc(C)n(CC2CCCN2CCCc2ccccc2)n1 (centres undefined),-6.68
16,CC(C)n1cc(CN2CCCN(C(=O)c3nccnc3N)CC2)cn1,7.08
17,Cn1ccc(NC(=O)Cc2cccc(F)c2)n1,14.1
18,NC(=O)c1ccc(CN2CCCC(O)C2)cc1 (centres undefined),-3.47
19,NC(=O)c1ccc(CN2CCCC(N3CCCC3)C2)cc1 (centres undefined),-7.14
20,Cc1nn(CC(=O)N2CCCC2Cn2cccn2)c(C)c1Cl (centres undefined),9.12
21,Cc1c(NC(=O)NCC(C)N2CCOCC2)cccc1OC(F)F (centres undefined),-0.748
22,O=C(CC1CN(Cc2ccccc2)CCO1)NC1CCCC1 (centres undefined),11.6
23,Cc1cc(C)n(C2CCCN(C(=O)c3cccc4[nH]ncc34)C2)n1 (centres undefined),-4.99
